Laboratory results reported in publication PMC2818873 (Bioorganic & medicinal chemistry, 2009).

Columns and labels:
[1] = system: folyl poly-γ-glutamate synthetase (FPGS); details: cited from earlier work
P. carinii DHFR = molecular target: T1, P. carinii DHFR (Pneumocystis carinii, UniProt P16184); assay type: biochemical; details: IC50 rat liver DHFR / IC50 P. carinii DHFR
T1 sequence (P16184 1-206): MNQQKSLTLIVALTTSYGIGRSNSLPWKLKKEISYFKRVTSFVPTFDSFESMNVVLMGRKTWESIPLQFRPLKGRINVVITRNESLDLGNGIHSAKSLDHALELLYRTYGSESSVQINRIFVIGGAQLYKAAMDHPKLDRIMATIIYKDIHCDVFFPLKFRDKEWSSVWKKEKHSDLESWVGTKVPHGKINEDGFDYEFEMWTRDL

| Selectivity ratio rl/pc (P. carinii DHFR) | SMILES | FPGS substrate activity [1] |
| --- | --- | --- |
|  | Cc1c(Sc2ccc(C(=O)N[C@@H](CCC(=O)O)C(=O)O)cc2)[nH]c2nc(N)nc(N)c12 [Compound 4] | reasonable FPGS substrate activity |
| >10 | Cc1c(Sc2cccc3ccccc23)oc2nc(N)nc(N)c12 [Compound 6, 2,4-Diamino-5-methyl-6-(1-naphthylthio)furo[2,3-d]pyrimidine] |  |
